From patent US9346761B2, “Arginine methyltransferase inhibitors and uses thereof” (Epizyme, Inc., priority 2013, dated 2016)

Each compound was assayed against T1, Full-length human PRMT3 (Homo sapiens, UniProt O60678) (assay: PRMT3 biochemical assay (3H-SAM Flashplate, peptide substrate)).
T1 construct: GST-tagged PRMT3; made in house; host or cells: E. coli BL21(DE3) Gold (pGEX-KG)
T1 sequence (O60678 with tags, fused parts or gaps): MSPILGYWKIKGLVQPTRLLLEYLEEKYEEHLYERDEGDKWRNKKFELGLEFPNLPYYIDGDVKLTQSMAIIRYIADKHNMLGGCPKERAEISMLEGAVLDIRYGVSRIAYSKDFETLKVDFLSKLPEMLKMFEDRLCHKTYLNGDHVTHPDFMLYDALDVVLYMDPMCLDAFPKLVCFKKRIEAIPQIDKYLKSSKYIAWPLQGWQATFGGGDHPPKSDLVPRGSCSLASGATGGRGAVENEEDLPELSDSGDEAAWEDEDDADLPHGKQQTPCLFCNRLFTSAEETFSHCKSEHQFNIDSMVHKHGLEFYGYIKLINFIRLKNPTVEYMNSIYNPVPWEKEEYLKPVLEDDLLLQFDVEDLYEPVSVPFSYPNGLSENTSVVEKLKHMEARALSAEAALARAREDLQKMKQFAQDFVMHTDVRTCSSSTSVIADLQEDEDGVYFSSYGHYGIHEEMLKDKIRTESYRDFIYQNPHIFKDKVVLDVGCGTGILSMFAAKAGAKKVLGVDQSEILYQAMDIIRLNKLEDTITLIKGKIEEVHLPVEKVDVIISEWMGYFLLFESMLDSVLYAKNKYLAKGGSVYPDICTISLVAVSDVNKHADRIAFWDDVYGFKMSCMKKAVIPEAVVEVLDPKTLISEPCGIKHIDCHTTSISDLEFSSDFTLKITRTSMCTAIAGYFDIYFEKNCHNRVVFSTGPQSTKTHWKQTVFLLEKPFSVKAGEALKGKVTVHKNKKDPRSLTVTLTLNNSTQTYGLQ
Excerpt: General Materials. S-adenosylmethionine (SAM), S-adenosylhomocysteine (SAH), bicine, Tween20, dimethylsulfoxide (DMSO), bovine skin gelatin (BSG),), isopropyl-β-D-thiogalactopyranoside (IPTG), and Tris(2-carboxyethyl)phosphine hydrochloride solution (TCEP) were purchased from Sigma-Aldrich at the highest level of purity possible. ^3H-SAM was purchase from American Radiolabeled Chemicals with a specific activity of 80 Ci/mmol. 384-well streptavidin Flashplates were purchased from PerkinElmer.
Substrates. Peptide containing the classic RMT substrate motif was synthesized with an N-terminal linker-affinity tag motif and a C-terminal amide cap by 21st Century Biochemicals. The peptide was purified by high-performance liquid chromatography (HPLC) to greater than 95% purity and confirmed by liquid chromatography mass spectrometry (LC-MS). The sequence was Biot-Ahx-[…]-amide (SEQ ID NO.:11).
Molecular Biology: : Full-length human PRMT3 (NM_005788.3) isoform 1 transcript clone was amplified from an HEK 293 cDNA library and subcloned into pGEX-KG (GE Life Sciences). The resulting construct encodes an N-terminal GST tag and a thrombin cleavage sequence ([…] […] […] […]) (SEQ ID NO.:12) fused directly to Cys 2 of PRMT3.
Protein Expression. E. coli (BL21(DE3) Gold, Stratagene) made competent by the CaCl2 method were transformed with the PRMT3 construct and ampicillin selection. Protein over-expression was accomplished by growing the PRMT3 expressing E. coli clone and inducing expression with 0.3 mM IPTG at 16° C. The culture was grown for 12 hours, harvested by centrifugation, and stored at −80° C. for purification.
Protein Purification. […] GST-tagged PRMT3 eluted with 25-400 mM phosphate in buffer C. Protein was concentrated and buffer was exchanged to 20 mM Tris, 150 mM NaCl, 5% glycerol, 5 mM β-mercaptoethanol, pH7.8 by ultrafiltration. The purity of recovered protein was 70%.
General Procedure for PRMT3 Enzyme Assays on Peptide Substrates. The assays were all performed in a buffer consisting of 20 mM Bicine (pH=7.6), 1 mM TCEP, 0.005% BSG, and 0.002% Tween 20, prepared on the day of use. Compounds in 100% DMSO (1 ul) were spotted into a polypropylene 384-well V-bottom plates (Greiner) using a Platemate Plus outfitted with a 384-channel head (Thermo Scientific). DMSO (1 ul) was added to Columns 11, 12, 23, 24, rows A-H for the maximum signal control and 1 ul of SAH, a known product and inhibitor of PRMT3, was added to columns 11, 12, 23, 24, rows I-P for the minimum signal control. A cocktail (40 ul) containing the PRMT3 enzyme was added by Multidrop Combi (Thermo-Fisher). The compounds were allowed to incubate with PRMT3 for 30 min at room temperature, then a cocktail (10 ul) containing SAM and peptide was added to initiate the reaction (final volume=51 ul). The final concentrations of the components were as follows: PRMT3 was 0.5 nM, ^3H-SAM was 100 nM, non-radiolabeled SAM was 1.8 uM, peptide was 330 nM, SAH in the minimum signal control wells was 1 mM, and the DMSO concentration was 2%. The assays were stopped by the addition of potassium chloride (10 ul) to a final concentration of 100 mM. 50 ul of the reaction in the 384-well polypropylene plate was then transferred to a 384-well Flashplate and the biotinylated peptides were allowed to bind to the streptavidin surface for at least 1 hour before being washed once with 0.1% Tween20 in a Biotek ELx405 plate washer. The plates were then read in a PerkinElmer TopCount plate reader to measure the quantity of ^3H-labeled peptide bound to the Flashplate surface, measured as disintegrations per minute (dpm) or alternatively, referred to as counts per minute (cpm).
Where dpm=disintegrations per minute, cmpd=signal in assay well, and min and max are the respective minimum and maximum signal controls.
Where top and bottom are the normally allowed to float, but may be fixed at 100 or 0 respectively in a 3-parameter fit. […]
With `CN(CCN)Cc1n[nH]cc1-c1ccc(OC(F)F)cc1` [Compound 138] the IC50 was greater than 10 µM.
In the case of `COc1cc(-c2n[nH]cc2CN(C)CCN)ccc1F` [Compound 142], the IC50 is reported as 3.01 to 10 µM.
`COc1ccccc1-c1n[nH]cc1CN(C)CCN` [Compound 109] gave an IC50 greater than 10 µM.
